# Read-outs that look alike come from different tables or passages of the source.
# Assays:
# [1] = test system: osteoclast precursors; assay: In vitro osteoclastogenesis assay (M-CSF + RANKL, TRAP staining); format: cell-based, Balb/c mice; settings: for % inhibition of osteoclast formation / Number of TRAP-positive multinuclear cells/well of 96 well plate (Mean ± SEM): 6 days; for Effect on RANKL-induced osteoclast differentiation / formation (in words): M-CSF and RANKL, TRAP-positive osteoclasts
# Excerpt: For in vitro osteoclastogenesis bone marrow cells were isolated from 5- to 8-wk-old Balb/c mice. Mice were sacrificed by cervical dislocation and femora and tibiae were aseptically removed and dissected free of adherent soft tissues. The bone ends were cut, and the marrow cavity was flushed out with medium MEM from one end of the bone using a sterile 21-gauge needle. The bone marrow suspension was carefully agitated with a plastic Pasteur pipette to obtain a single-cell suspension. The cells were washed twice and resuspended (10^6 cells/ml) in αMEM containing 10% FBS. […] After 24 h, nonadherent cells were harvested and layered on a Ficoll-Hypaque gradient. Cells at the gradient interface were collected, washed and resuspended (5×10^5/ml) in αMEM containing 10% FBS. In this study, we called these stromal cell-free, M-CSF-dependent, nonadherent cells as osteoclast precursors. These osteoclast precursors were added to 96-well plates (100 μl/well) containing plastic coverslips. Each well received further 100 μl of medium containing M-CSF (30 ng/ml), RANKL (30 ng/ml) without or with various concentrations of purified compound. Cultures were fed every 2-3 days and after incubation for 6 days osteoclast formation was evaluated by tartrate-resistant acid phosphatase (TRAP) staining. The number of TRAP-positive multinucleated cells (MNCs) containing 3 or more nuclei was scored.
# TRAP is preferentially expressed at high levels in osteoclast and is considered, especially in the mouse, to be an osteoclast marker. Cytochemical staining for TRAP is widely used for identifying the osteoclasts in vivo and in vitro. It is claimed to be specific for osteoclasts in bone. After incubation, cells on cover slips were washed in PBS, fixed in 10% formalin for 10 min and stained for acid phosphatase in the presence of 0.05 M sodium tartrate. The substrate used was napthol AS-BI phosphate. Only those cells that were strongly TRAP-positive (dark red) counted by light microscopy.
# [2] = test system: mouse bone marrow leukocyte precursors; assay: Viability of the stimulated BM precursor cultures; format: cell-based, BALB/c mice; set-up: Viability, % of Viable cells: reference not given here
# Procedure: (§1) The fine suspension obtained above was transferred into a 50 ml sterile centrifuge tube and centrifuged for 10 minutes at 1200 rpm. […] The pellets were washed using HBSS wash buffer and then centrifuged again for 10 minutes at 1200 rpm. This process was repeated for one more time. […] This suspension was then finally passed through a MACS (Magnetic Activated Cell Sorting) column to get essentially and predominately leukocyte precursors.
# [3] = test system: mouse bone marrow leukocyte precursors; assay: Differentiation of dendritic cells from bone marrow leukocyte precursors, flow cytometry of cell surface markers; format: cell-based, BALB/c mice
# Procedure: as §1
# In order to evaluate the upregulation of various cell surface markers associated with Dendritic cells, flow cytometry on the cells stimulated with GM-CSF or the compound was carried out using fluorescent labeled antibodies to various molecules (CD11c, I-A^d, CD80, CD86, H2-D^d, CD54, CD40).
# The hind limbs of the mouse were removed carefully and placed in a Petri dish with HBSS (Hanks Balanced Saline Solution) wash buffer. The tibias and femurs were cleared of all surrounding and attached tissues. This was followed by chipping the ends of bones. The bone marrow was flushed out by injecting HBSS solution into the bone with the help of a hypodermal syringe (No. 26 gauge). The bone marrow was finally made into a fine suspension by syringing in and out of the fluid several times using an 18 gauge syringe needle.
# [4] = M-CSF + RANKL + compound 0.5 μg/ml
# [5] = M-CSF + RANKL + compound 1.5 μg/ml
# [6] = M-CSF + RANKL + compound 3.0 μg/ml
# [7] = M-CSF + RANKL + compound 5.0 μg/ml
# [8] = Table A, 15 ng/ml of GM-CSF or 50 micro gram per ml of the synthetic compound, 48 h
# [9] = Table B (Examples 6-8), concentration not given
molecule,measurement,setting,value
"O=C([O-])CCC[C@H](NS(=O)(=O)[O-])C(=O)[O-].O=C([O-])CCC[C@H](NS(=O)(=O)[O-])C(=O)[O-].[Ca+2].[Ca+2].[Ca+2] [L-homoglutamic acid, N-sulphonic acid, calcium salt]",% inhibition of osteoclast formation,[1]; [4],5.55%
same,Number of TRAP-positive multinuclear cells/well of 96 well plate (Mean ± SEM),[1]; [4],138.57 ± 7.95 cells/well
same,% inhibition of osteoclast formation,[1]; [5],27.60%
same,Number of TRAP-positive multinuclear cells/well of 96 well plate (Mean ± SEM),[1]; [5],106.23 ± 10.47 cells/well
same,% inhibition of osteoclast formation,[1]; [6],46.40%
same,Number of TRAP-positive multinuclear cells/well of 96 well plate (Mean ± SEM),[1]; [6],78.57 ± 13.57 cells/well
same,% inhibition of osteoclast formation,[1]; [7],68.50%
same,Number of TRAP-positive multinuclear cells/well of 96 well plate (Mean ± SEM),[1]; [7],46.22 ± 10.00 cells/well
"O=C([O-])CC[C@H](NS(=O)(=O)[O-])C(=O)[O-].O=C([O-])CC[C@H](NS(=O)(=O)[O-])C(=O)[O-].[Ca+2].[Ca+2].[Ca+2] [compound 1, L-glutamyl-N-sulphonic acid, Ca salt]",Viability of the cultures at the end of the incubation period,"[2]; 200 mM of the synthetic compound, 48 h (embodiment text)",more than 99%
same,Viability of the cultures at the end of the incubation period,"[2]; 50 micro gram per ml of the synthetic compound, 48 h",> 99%
same,"Viability, % of Viable cells",[2]; [8],150%
same,Induction of differentiation of dendritic cells from BM precursors (in words),[3],Induces Differentiation of Dendritic Cells
same,"Concentration of maximum up regulation of cell surface densities of CD11c, CD80, CD54",[3]; incubation of BM leukocyte precursors with different concentrations,200 mM
same,Induction of differentiation of dendritic cells from BM precursors (in words),[3]; listed as the compound,induces the differentiation of DCs from BM precursors
same,Effect on RANKL-induced osteoclast differentiation / formation (in words),[1],dose dependent inhibition in the number of osteoclast cells generated
"O=C(O)C[C@H](NS(=O)(=O)O)C(=O)O [example 3, L-aspartyl, N-sulfonic acid]",Effect on RANKL-induced osteoclast differentiation / formation (in words),[1],significantly inhibited osteoclast formation
"GM-CSF: Granulocyte Macrophage-Colony Stimulating Factor, growth factor conventionally used to generate DCs in vitro; comparison","Viability, % of Viable cells",[2]; [8],180%
same,"Viability, % of Viable cells",[2]; [9],180%
same,"Fold increase in Relative MFI over unstimulated control, surface marker CD11c",[3]; [8],5.0 fold
same,"Fold increase in Relative MFI over unstimulated control, surface marker CD54",[3]; [8],4.0 fold
same,"Fold increase in Relative MFI over unstimulated control, surface marker CD80",[3]; [8],3.3 fold
same,"Fold increase in Relative MFI over unstimulated control, surface marker H-2D^d",[3]; [8],2.0 fold
same,"Fold increase in Relative MFI over unstimulated control, surface marker CD11c",[3]; [9],5.0 fold
same,"Fold increase in Relative MFI over unstimulated control, surface marker CD54",[3]; [9],4.0 fold
same,"Fold increase in Relative MFI over unstimulated control, surface marker CD80",[3]; [9],3.3 fold
same,"Fold increase in Relative MFI over unstimulated control, surface marker H-2D^d",[3]; [9],2.0 fold
